Data reported in patent publication US20050079549A1, “Methods for modeling GPCRs and for producing ligand blocking and receptor activating antibodies for same” (priority 2003, published 2005).

What was measured:
[1] = molecular target: T1, human S1P4 (formerly Edg 6) (Homo sapiens, UniProt O95977); test: phospho ERK 1/2 ELISA in CHO cells stably transfected with human S1P4; assay type: cell-based; settings: CHO EDG6 (S1P4); 10 nM S1P, no antibody
T1 sequence (O95977 1-384): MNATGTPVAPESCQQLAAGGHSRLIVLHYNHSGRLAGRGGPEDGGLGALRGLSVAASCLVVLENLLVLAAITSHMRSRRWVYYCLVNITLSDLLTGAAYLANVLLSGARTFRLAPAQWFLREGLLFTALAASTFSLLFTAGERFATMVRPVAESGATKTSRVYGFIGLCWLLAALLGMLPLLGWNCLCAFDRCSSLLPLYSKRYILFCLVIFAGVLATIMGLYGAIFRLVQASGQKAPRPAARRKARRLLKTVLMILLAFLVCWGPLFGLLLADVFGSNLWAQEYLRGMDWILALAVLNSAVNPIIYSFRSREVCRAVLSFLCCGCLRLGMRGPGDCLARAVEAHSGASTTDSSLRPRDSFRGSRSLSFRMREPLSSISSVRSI
Description: (§1) For example, CHO cells that are stably transfected with human S1P4 (formerly Edg 6) a GPCR (g protein coupled receptor) for sphingosine 1-phosphate (S1P) a lipid growth factor mediator or mock transfected CHO control cells are washed in DMEM and starved of serum for 4 hours at 37° C.
(§2) One million cells in 1 ml serum free DMEM were challenged with monoclonal antibodies that had been raised against a S1P4 cyclic molecular mimic loop 1B structure described herein for 10 minutes at room temperature. Monoclonal antibody supernatants containing DMEM with 10% fetal bovine serum antibiotics, L glutamine media supplements, were pretreated with cell culture tested Norite™ (Sigma Chemical Company) for 24 hours at 4 C to remove endogenous S1P from the media prior to the addition of supernatant to cells. Following antibody addition and incubation, 10 nM S1P was added for 15 minutes at 37 C. Controls of media alone, media and Norite™, media and 10 nM S1P, media-Norite™ and SIP, and media PMA were included. [drawing]

[2] = system: mock transfected CHO control cells; test: phospho ERK 1/2 ELISA in mock transfected CHO control cells; assay type: cell-based; settings: 10 nM S1P, no antibody
Description: as §1, §2

[3] = NMR spectra of mixtures of loop peptide and O-phosphoethanolamine; assay type: binding; settings: mixture with O-phosphoethanolamine
Text: NMR is used to characterize the interactions between the extracellular loops and O-phosphoethanolamine, a mimic of the S1P4 endogenous ligand to determine if potential for ligand binding exists.
The most important NMR result for the characterization of the interaction between the constrained peptides and O-phosphoethanolamine are heteronuclear 2D-NOE that allow derivation of the distances between the cationic nitrogens of R121 and R287 and the phosphate phosphorous atom of O-phosphoethanolamine. Additional information is derived from chemical shift changes of the protons in residues of the loop peptides upon addition of the phosphoethanolamine as well as chemical shift changes of protons on the phosphoethanolamine. Such chemical shift changes are indicative of changes in the electronic environment of these protons and are used in high-throughput NMR assays of ligand binding. (Shuker, S. B., Hajduk, P. J., Meadows, R. P. & Fesik, S. W. Discovering High-Affinity Ligands for Proteins: SAR by NMR. Science 274, 1531-1534 (1996)).

Row | phospho ERK 1/2 [1] | ligand binding by NMR [3] | Compound | phospho ERK 1/2 [2]
1 | 1.280 ng/mL |  | CCCCCCCCCCCCC/C=C/[C@@H](O)[C@@H](N)COP(=O)(O)O [Clone S1P, sphingosine 1-phosphate] | 0.000 ng/mL
2 |  | reflect ligand binding | FLVWGPLFGLLLADVFGSNLWAQEYLRGMDWILAAVL [Loop 3, conformationally constrained peptide mimicking S1P4 extracellular loop 3] | 
3 |  | reflect ligand binding | TGAYLANVLLSGARTFRLAPAQWFLREGCLFT [Loop 1 B, conformationally constrained (disulfide) peptide mimicking S1P4 extracellular loop 1] | 
